Source: ChEMBL document CHEMBL4507292 (2021)

Columns and labels:
Rattus norvegicus = species: Rattus norvegicus; test: Testosterone Eurofins-Panlabs radioligand binding assay; set-up: ligand concentration 1.5 nM; details: Compound concentration 10.0 uM
[1] = target: L-type calcium channel, benzothiazepine site (Cav1.2 alpha-1C) (Homo sapiens, UniProt Q13936); test: Inhibition of Calcium Channel L-Type, Benzothiazepine at 10 µM in the Eurofins-Panlabs radioligand binding assay (Eurofins_assay_214510); set-up: ligand concentration 2 nM, non-specific ligand with concentration 10 µM Diltiazem, incubation time 3h, incubation temperature 4 °C; details: male, Wistar, rat, rat whole brain preparation, probe [3H] Diltiazem, 2 nM; compound concentration 10 uM; target entry is the homologue from another species
[2] = target: Voltage-dependent N-type calcium channel subunit alpha-1B (Homo sapiens) (UniProt Q00975); test: Inhibition of Calcium Channel N-Type at 10 µM in the Eurofins-Panlabs radioligand binding assay (Eurofins_assay_216000); details: Rattus norvegicus; Compound concentration 10.0 uM
[3] = target: Platelet-activating factor receptor (Homo sapiens) (UniProt P25105); test: Inhibition of Platelet Activating Factor (PAF) at 10 µM in the Eurofins-Panlabs radioligand binding assay (Eurofins_assay_265010); details: Compound concentration 10.0 uM
[4] = target: monoamine oxidase A (MAO-A) (Homo sapiens, UniProt P21397); test: Inhibition of Monoamine Oxidase MAO-A at compound concentration of 10.0 uM in the Eurofins-Panlabs enzyme assay (Eurofins_assay_140010); set-up: substrate with concentration 50 uM Kynuramine, incubation time 60 min, incubation temperature 37 C; details: human recombinant MAO-A expressed in insect Hi5 cells, probe kynuramine, 50 uM, compound concentration 10 uM
Phosphodiesterase 3 = Phosphodiesterase 3 (Homo sapiens, UniProt Q14432+Q13370); test: Inhibition of Phosphodiesterase PDE3 at compound concentration of 10.0 uM in the Eurofins-Panlabs enzyme assay (Eurofins_assay_152000); format: protein assay; set-up: substrate with concentration 1.01 uM [3H] cAMP + cAMP, incubation time 20 min, incubation temperature 25 C
[5] = (§1) Inhibition of Phosphodiesterase PDE4 at compound concentration of 10.0 uM in the Eurofins-Panlabs enzyme assay (Eurofins_assay_154000); format: protein assay, Homo sapiens; set-up: substrate with concentration 1.01 uM [3 H]cAMP + cAMP, incubation time 20 min, incubation temperature 25 C
Homo sapiens [6] = species: Homo sapiens; test: as §1; format: protein assay; set-up: substrate with concentration 1.01 uM [3 H]cAMP + cAMP, incubation time 20 min, incubation temperature 25 C
[7] = target: Mitogen-activated protein kinase 3 (Homo sapiens) (UniProt P27361); test: Inhibition of Protein Serine/Threonine Kinase, MAPK3 (ERK1) at 10 µM in the Eurofins-Panlabs enzyme assay (Eurofins_assay_171000); details: Compound concentration […]
[8] = target: Calcitonin receptor (Homo sapiens) (UniProt P30988); test: Inhibition of Calcitonin at 10 µM in the Eurofins-Panlabs radioligand binding assay (Eurofins_assay_213610)
[9] = target: 5-hydroxytryptamine receptor 1B (Homo sapiens) (UniProt P28222); test: Inhibition of Serotonin (5-Hydroxytryptamine) 5-HT1B at 10 µM in the Eurofins-Panlabs radioligand binding assay (Eurofins_assay_271200); details: Compound concentration 10.0 uM
[10] = target: Vasoactive intestinal polypeptide receptor 1 (Homo sapiens) (UniProt P32241); test: Inhibition of Vasoactive Intestinal Peptide VIP1 at 10 µM in the Eurofins-Panlabs radioligand binding assay (Eurofins_assay_287010); details: Compound concentration 10.0 uM
[11] = target: monoamine oxidase B (MAO-B) (Homo sapiens, UniProt P27338); test: Inhibition of Monoamine Oxidase MAO-B at compound concentration of 10.0 uM in the Eurofins-Panlabs enzyme assay (Eurofins_assay_140120); set-up: substrate with concentration 50 uM Kynuramine, incubation time 60 min, incubation temperature 37 C; details: human recombinant MAO-B expressed in insect Hi5 cells, probe kynuramine, 50 uM, compound concentration 10 uM
Caspase-6 (Homo sapiens) = Caspase-6 (Homo sapiens) (UniProt P55212); test: Peptidase, CASP6 (Caspase 6) Eurofins-Panlabs enzyme assay; set-up: substrate with concentration; details: Compound concentration 10.0 uM
[12] = target: Neprilysin (Homo sapiens) (UniProt P08473); test: Peptidase, Metalloproteinase, Neutral Endopeptidase Eurofins-Panlabs enzyme assay; details: Compound concentration 10.0 uM
[13] = (§2) Cholecystokinin CCK2 (CCKB) Eurofins-Panlabs radioligand binding assay; set-up: species or system Homo sapiens; ligand concentration 0.072 nM, non-specific ligand with concentration 1 µM Sincalide, incubation time 3 h, incubation temperature 25 °C
Homo sapiens [14] = species: Homo sapiens; test: as §2; set-up: ligand concentration 0.072 nM, non-specific ligand with concentration 1 µM Sincalide, incubation time 3 h, incubation temperature 25 °C
[15] = target: T1, D(4) dopamine receptor (Homo sapiens) (UniProt P21917); test: Dopamine D4.4 Eurofins-Panlabs radioligand binding assay; set-up: ligand concentration 1.2 nM; details: Compound concentration 10.0 uM
T1 sequence (whole entry): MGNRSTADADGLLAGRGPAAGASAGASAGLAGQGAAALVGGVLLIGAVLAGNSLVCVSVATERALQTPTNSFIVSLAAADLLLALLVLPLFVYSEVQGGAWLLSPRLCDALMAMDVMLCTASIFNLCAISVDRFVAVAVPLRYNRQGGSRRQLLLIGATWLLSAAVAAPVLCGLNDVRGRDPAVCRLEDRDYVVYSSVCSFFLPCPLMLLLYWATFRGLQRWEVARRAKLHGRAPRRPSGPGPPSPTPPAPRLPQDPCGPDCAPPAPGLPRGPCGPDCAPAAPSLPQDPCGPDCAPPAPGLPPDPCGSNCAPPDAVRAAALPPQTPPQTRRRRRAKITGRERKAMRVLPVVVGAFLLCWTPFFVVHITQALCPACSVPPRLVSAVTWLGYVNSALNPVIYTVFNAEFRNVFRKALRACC

[16] = target: Sodium-dependent serotonin transporter (Homo sapiens, UniProt P31645); test: Transporter, Serotonin (5- Hydroxytryptamine) (SERT) Eurofins-Panlabs radioligand binding assay; set-up: ligand concentration 0.15 nM, non-specific ligand with concentration 10 µM Imipramine, incubation time 3 h, incubation temperature 4 °C
[17] = target: Estrogen receptor (Homo sapiens) (UniProt P03372); details: Compound concentration 10.0 uM
[18] = target: Glutamate NMDA receptor (Rattus norvegicus) (UniProt P35439+Q00959+Q00960+Q00961+Q62645+Q8VHN2+Q9R1M7); details: Compound concentration 10.0 uM
[19] = target: T2, 5-hydroxytryptamine receptor 2C (Homo sapiens) (UniProt P28335); details: Compound concentration 10.0 uM
T2 sequence (whole entry): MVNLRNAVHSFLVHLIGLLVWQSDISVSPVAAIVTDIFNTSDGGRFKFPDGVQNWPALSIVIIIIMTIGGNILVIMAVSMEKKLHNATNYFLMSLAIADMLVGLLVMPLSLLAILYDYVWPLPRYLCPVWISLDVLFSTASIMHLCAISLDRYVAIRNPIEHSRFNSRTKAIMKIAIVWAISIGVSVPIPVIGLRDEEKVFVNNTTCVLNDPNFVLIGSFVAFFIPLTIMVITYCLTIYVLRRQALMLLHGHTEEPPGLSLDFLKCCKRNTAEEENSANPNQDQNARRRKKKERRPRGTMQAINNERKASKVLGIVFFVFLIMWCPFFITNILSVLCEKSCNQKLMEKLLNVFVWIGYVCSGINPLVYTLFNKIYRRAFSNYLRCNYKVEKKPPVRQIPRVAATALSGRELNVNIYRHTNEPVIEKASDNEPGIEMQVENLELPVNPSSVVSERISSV

[20] = target: Vasopressin V1a receptor (Homo sapiens) (UniProt P37288); details: Compound concentration 10.0 uM
[21] = Compound concentration 100.0 uM

5-hydroxytryptamine receptor 1B (Homo sapiens), sequence (P28222 whole entry): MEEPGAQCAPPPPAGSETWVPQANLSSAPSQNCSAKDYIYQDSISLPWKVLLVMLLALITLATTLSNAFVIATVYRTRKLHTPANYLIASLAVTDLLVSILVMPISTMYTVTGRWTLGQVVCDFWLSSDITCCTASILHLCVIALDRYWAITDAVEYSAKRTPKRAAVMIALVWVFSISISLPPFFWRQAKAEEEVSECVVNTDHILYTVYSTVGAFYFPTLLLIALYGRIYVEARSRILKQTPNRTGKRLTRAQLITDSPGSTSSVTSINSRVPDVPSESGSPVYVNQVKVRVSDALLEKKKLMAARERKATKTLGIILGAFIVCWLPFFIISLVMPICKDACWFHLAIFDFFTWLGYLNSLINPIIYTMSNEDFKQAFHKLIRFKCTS
monoamine oxidase A (MAO-A), sequence (P21397 whole entry): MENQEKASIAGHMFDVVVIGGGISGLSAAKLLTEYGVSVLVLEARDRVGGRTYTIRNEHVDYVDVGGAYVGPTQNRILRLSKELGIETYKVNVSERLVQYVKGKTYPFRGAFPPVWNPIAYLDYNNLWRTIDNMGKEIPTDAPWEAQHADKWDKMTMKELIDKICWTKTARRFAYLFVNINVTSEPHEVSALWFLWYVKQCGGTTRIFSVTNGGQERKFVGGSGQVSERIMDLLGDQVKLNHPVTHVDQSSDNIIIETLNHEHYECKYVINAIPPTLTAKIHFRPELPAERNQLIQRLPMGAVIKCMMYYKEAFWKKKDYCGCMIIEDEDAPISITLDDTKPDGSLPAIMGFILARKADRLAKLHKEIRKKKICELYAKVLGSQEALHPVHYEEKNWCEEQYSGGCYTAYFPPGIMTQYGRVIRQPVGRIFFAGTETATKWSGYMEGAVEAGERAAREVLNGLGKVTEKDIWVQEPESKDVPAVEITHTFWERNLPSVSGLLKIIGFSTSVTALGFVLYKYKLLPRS
Voltage-dependent N-type calcium channel subunit alpha-1B (Homo sapiens), sequence (Q00975 whole entry, looked up): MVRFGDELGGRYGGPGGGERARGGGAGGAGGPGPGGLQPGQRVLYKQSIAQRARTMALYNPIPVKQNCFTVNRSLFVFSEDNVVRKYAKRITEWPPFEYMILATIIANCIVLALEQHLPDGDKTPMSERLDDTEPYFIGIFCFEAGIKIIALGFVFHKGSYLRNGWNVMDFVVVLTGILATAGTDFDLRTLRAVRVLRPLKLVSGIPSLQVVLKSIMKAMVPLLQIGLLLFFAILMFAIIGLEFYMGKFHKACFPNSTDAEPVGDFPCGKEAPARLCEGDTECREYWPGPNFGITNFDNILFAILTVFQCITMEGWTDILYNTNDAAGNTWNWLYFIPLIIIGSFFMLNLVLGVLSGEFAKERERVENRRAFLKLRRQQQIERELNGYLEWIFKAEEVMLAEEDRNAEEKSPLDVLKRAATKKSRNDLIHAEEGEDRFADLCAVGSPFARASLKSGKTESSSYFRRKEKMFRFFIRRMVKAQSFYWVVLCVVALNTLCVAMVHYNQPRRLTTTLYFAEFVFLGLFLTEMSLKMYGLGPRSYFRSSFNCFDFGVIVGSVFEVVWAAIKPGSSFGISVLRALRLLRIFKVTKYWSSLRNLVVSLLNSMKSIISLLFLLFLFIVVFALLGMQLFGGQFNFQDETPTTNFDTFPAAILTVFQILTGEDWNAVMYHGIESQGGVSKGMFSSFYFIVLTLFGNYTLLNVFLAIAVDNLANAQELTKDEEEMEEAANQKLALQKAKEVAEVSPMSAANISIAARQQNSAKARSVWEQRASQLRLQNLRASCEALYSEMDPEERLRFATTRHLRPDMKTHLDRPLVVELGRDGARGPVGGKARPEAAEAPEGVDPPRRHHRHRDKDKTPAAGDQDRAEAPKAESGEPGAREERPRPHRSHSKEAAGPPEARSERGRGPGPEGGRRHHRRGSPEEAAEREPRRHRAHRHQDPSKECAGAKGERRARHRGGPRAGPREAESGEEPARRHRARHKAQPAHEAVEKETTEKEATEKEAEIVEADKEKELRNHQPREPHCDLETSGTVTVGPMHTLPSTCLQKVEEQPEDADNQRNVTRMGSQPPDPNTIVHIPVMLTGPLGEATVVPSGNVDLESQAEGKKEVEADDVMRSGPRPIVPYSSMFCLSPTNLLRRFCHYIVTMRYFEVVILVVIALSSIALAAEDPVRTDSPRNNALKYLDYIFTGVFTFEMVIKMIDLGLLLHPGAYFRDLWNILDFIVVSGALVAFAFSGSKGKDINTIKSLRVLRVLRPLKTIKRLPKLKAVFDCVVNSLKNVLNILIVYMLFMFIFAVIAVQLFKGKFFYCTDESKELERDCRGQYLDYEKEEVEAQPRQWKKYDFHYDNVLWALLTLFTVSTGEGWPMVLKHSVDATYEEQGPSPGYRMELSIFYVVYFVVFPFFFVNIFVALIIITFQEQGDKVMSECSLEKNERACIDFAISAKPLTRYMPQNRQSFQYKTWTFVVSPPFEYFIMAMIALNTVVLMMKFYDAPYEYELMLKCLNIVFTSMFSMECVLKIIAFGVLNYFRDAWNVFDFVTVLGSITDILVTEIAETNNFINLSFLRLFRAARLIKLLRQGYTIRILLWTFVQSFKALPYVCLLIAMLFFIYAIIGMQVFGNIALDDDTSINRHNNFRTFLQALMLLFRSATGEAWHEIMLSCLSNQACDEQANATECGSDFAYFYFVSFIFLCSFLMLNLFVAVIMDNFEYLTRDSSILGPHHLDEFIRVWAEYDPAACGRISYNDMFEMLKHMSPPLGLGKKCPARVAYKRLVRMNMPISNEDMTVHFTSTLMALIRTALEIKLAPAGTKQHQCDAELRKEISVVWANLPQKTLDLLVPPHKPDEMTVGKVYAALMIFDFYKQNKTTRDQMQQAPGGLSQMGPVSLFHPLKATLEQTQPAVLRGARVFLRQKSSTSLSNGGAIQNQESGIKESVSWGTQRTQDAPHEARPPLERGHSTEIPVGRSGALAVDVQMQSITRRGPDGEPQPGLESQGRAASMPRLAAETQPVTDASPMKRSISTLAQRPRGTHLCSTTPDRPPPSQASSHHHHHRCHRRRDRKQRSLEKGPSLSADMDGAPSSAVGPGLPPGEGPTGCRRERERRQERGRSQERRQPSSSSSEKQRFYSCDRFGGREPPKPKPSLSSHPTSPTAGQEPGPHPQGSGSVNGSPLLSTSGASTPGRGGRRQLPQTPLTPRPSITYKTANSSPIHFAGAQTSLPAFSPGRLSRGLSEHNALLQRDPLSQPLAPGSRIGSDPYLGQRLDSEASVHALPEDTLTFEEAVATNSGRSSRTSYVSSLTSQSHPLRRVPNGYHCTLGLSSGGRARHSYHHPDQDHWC
Mitogen-activated protein kinase 3 (Homo sapiens), sequence (P27361 whole entry): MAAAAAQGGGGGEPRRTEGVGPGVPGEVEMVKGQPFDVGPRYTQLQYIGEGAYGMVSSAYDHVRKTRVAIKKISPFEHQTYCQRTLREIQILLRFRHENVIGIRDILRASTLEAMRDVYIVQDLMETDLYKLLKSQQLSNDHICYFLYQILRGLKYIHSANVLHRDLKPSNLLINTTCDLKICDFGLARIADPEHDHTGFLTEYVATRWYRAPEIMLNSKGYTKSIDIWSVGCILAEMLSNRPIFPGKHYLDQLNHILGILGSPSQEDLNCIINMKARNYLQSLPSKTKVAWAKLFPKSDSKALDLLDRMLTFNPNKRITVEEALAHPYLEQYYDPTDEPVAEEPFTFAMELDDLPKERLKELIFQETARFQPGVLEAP
Vasoactive intestinal polypeptide receptor 1 (Homo sapiens), sequence (P32241 whole entry): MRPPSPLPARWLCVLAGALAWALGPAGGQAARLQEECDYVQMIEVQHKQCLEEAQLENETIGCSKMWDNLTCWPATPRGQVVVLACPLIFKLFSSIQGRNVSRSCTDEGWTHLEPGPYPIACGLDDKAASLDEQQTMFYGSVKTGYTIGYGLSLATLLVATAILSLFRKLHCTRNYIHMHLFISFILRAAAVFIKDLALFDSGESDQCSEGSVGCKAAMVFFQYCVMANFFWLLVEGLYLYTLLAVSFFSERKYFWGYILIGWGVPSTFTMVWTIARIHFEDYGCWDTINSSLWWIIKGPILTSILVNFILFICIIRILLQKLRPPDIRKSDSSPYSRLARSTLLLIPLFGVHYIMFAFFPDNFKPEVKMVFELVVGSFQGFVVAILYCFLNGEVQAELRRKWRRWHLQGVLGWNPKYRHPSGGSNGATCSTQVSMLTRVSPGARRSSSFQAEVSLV
monoamine oxidase B (MAO-B), sequence (P27338 whole entry): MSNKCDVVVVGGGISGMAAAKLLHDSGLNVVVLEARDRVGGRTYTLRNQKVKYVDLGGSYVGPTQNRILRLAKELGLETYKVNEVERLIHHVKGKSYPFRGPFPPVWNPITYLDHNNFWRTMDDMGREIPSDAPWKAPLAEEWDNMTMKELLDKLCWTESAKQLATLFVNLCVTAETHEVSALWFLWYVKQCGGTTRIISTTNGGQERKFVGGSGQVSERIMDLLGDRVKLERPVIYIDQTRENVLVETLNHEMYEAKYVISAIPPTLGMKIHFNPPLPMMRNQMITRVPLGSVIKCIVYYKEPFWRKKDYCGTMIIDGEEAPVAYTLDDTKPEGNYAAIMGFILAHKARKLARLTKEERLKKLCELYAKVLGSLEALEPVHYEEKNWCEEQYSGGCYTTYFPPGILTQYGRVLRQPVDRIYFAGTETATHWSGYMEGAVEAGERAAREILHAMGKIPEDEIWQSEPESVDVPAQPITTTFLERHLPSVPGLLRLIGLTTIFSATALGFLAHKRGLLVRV
Vasopressin V1a receptor (Homo sapiens), sequence (P37288 whole entry, looked up): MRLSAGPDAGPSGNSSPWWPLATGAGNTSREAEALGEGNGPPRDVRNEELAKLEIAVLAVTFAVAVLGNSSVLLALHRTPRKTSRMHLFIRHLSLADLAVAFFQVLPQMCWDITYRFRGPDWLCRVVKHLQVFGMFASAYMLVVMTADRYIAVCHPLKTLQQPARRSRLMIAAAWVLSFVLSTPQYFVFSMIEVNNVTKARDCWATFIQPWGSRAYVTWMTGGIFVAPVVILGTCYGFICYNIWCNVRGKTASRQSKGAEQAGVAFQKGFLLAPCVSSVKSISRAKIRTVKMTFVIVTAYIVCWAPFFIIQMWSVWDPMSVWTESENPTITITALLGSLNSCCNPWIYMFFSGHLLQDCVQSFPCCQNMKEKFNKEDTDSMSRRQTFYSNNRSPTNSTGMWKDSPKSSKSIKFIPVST

O=C(O)c1cc(-c2ccc(C3CCNCC3)cc2)c2ccc(-c3ccc(C(F)(F)F)cc3)cc2c1 [PPTN]
inhibition (Rattus norvegicus): 26%
inhibition at 3 h, 10 µM [1]: 11% (not active)
inhibition [2]: 11%
inhibition [3]: 4%
inhibition at 60 min, 10 µM [4]: 22% (not active)
IC50 (Phosphodiesterase 3): 51.5 µM
inhibition (Phosphodiesterase 3; Compound concentration 0.1 uM): -7%
inhibition (Phosphodiesterase 3; Compound concentration 1.0 uM): 4%
inhibition (Phosphodiesterase 3; Compound concentration 10.0 uM): 28%
inhibition (Phosphodiesterase 3; [21]): 59%
IC50 [5]: 100 µM
inhibition (Homo sapiens [6]; Compound concentration 0.1 uM): -6%
inhibition (Homo sapiens [6]; Compound concentration 1.0 uM): 0%
inhibition (Homo sapiens [6]; Compound concentration 10.0 uM): 24%
inhibition (Homo sapiens [6]; [21]): 49%
inhibition [7]: -5%
inhibition [8]: 5%
inhibition [9]: -4%
inhibition [10]: 3%
inhibition at 60 min, 10 µM [11]: 3% (not active)
inhibition (Caspase-6 (Homo sapiens)): -8%
inhibition [12]: 1%
IC50 [13]: 10 µM
inhibition (Homo sapiens [14]; Compound concentration 0.01 uM): 3%
inhibition (Homo sapiens [14]; Compound concentration 0.1 uM): -1%
inhibition (Homo sapiens [14]; Compound concentration 1.0 uM): 0%
inhibition (Homo sapiens [14]; Compound concentration 10.0 uM): 48%
inhibition [15]: -8%
IC50 [16]: 9.47 µM
Ki [16]: 5.03 µM
inhibition ([16]; Compound concentration 0.01 uM): -7%
inhibition ([16]; Compound concentration 0.1 uM): -9%
inhibition ([16]; Compound concentration 1.0 uM): -6%
inhibition ([16]; Compound concentration 10.0 uM): 58%
inhibition [17]: 12%
inhibition [18]: -4%
inhibition [19]: 20%
inhibition [20]: 3%
